In PMC5734728, “The JAK2/STAT3 inhibitor pacritinib effectively inhibits patient-derived GBM brain tumor initiating cells in vitro and when used in combination with temozolomide increases survival in an orthotopic xenograft model” (PLoS ONE, 2017):
Read-outs that look alike come from different tables or passages of the source.

Experiments:
BT12 = assay: alamarBlue BTIC viability assay, BT12; conditions: Homo sapiens, BT-12, read-out: IC50 (viability)
Procedure: (§1) Accumax (eBioscience) was used to enzymatically dissociate BTIC spheres to single cells. Cells were seeded at 1000 cells per well in 96-well plates and treated with vehicle (DMSO) or drug, 24 hours after plating. BTIC viability was assessed after 7–14 days, once spheres were formed in control wells, by performing the alamarBlue™ (Invitrogen) assay per the manufacturer’s instructions. In brief, the alamar dye was added to each well and plates were read 6 hours later. Fluorescence intensity (excitation 540 nm; emission 590 nm) was measured on a SpectraMax M Series Multi-Mode Microplate reader. […] All experiments were performed in triplicate with a minimum of 3 wells per condition.
(§2) BTICs were treated with suboptimal doses of 1 μM pacritinib (CTI Biopharma), 10 μg/mL TMZ (Sigma), or a combination of pacritinib and TMZ. […] Percent inhibition was determined by normalizing each well to the control well (0.1% DMSO).

BT69 [1] = assay: neurosphere assay, BT69; type: cell-based, human; conditions: 3 μM
BT143 = assay: alamarBlue BTIC viability assay, BT143; type: cell-based; conditions: Homo sapiens; BTIC line BT143, alamarBlue
[2] = test system: BT53 orthotopic xenograft; assay: Kaplan-Meier survival, orthotopic BT53 xenograft; type: in vivo, mice; conditions: BT53 xenografted mice, 100 mg/kg pacritinib, three weeks; p < 0.7237 log-rank
Procedure: For Kaplan-Meier survival studies, BTIC spheres from BT53 or BT147 were dissociated to a single-cell suspension. Mice were anaesthetized using 10 mg/kg ketamine/xylazine. Buprenorphine (0.05 mg/kg) was administered once pre-operatively and once post-operatively to minimize animal suffering. 5 x 10^4 cells were stereotactically implanted into the right striata of 8- to 10-week-old female severe combined immunodeficient (SCID) mice, as previously described and approved by the University of Calgary Health Sciences Animal Care Committee, accredited by CCAC. Mice were randomized to vehicle or treatment cohorts, with a minimum of 8 mice per group, one week after cell implantation. For BT147, vehicle (Ora-Plus; Galenova), pacritinib (100 mg/kg), TMZ (30 mg/kg), or a combination of pacritinib (100 mg/kg) and TMZ (30 mg/kg), were administered via oral gavage. Animals completed a five-week regimen of three weekly treatments for a total of 15 treatments. For BT53, 100 mg/kg of pacritinib was administered twice per day alone or in combination with 50 mg/kg TMZ once per day, for one week via oral gavage. Following this, mice received 100 mg/kg pacritinib twice per day in combination with 10 mg/kg TMZ once per day for two weeks. […] The body weights were closely monitored throughout the course of the experiment. […]

BT67 = assay: alamarBlue BTIC viability assay, BT67; type: cell-based; conditions: Homo sapiens; BTIC line BT67, alamarBlue
BT69 [3] = assay: alamarBlue BTIC viability assay, BT69; type: cell-based; conditions: Homo sapiens; BTIC line BT69, alamarBlue
BT48 = assay: alamarBlue BTIC viability assay, BT48; type: cell-based; conditions: Homo sapiens; BTIC line BT48, alamarBlue
[4] = test system: BT147 orthotopic xenograft; assay: Kaplan-Meier survival, orthotopic BT147 xenograft; type: in vivo; conditions: BT147 xenografted mice
Procedure: For Kaplan-Meier survival studies, BTIC spheres from BT53 or BT147 were dissociated to a single-cell suspension. Mice were anaesthetized using 10 mg/kg ketamine/xylazine. Buprenorphine (0.05 mg/kg) was administered once pre-operatively and once post-operatively to minimize animal suffering. 5 x 10^4 cells were stereotactically implanted into the right striata of 8- to 10-week-old female severe combined immunodeficient (SCID) mice, as previously described and approved by the University of Calgary Health Sciences Animal Care Committee, accredited by CCAC. Mice were randomized to vehicle or treatment cohorts, with a minimum of 8 mice per group, one week after cell implantation. For BT147, vehicle (Ora-Plus; Galenova), pacritinib (100 mg/kg), TMZ (30 mg/kg), or a combination of pacritinib (100 mg/kg) and TMZ (30 mg/kg), were administered via oral gavage. Animals completed a five-week regimen of three weekly treatments for a total of 15 treatments. For BT53, 100 mg/kg of pacritinib was administered twice per day alone or in combination with 50 mg/kg TMZ once per day, for one week via oral gavage. Following this, mice received 100 mg/kg pacritinib twice per day in combination with 10 mg/kg TMZ once per day for two weeks. Mice were euthanized with a lethal dose of sodium pentobarbital at a pre-defined humane endpoint. Specific criteria for the endpoint included: 20% weight loss, lack of grooming, inactivity, hind limb paralysis, and/or inability to eat or drink. The body weights were closely monitored throughout the course of the experiment. […] The presence of tumor was confirmed in the mice via necropsy and cranial dissection.

in vitro = in vitro ADME, mouse; conditions: mouse liver microsomes, 30-minute incubation; for % Remaining: 1 μM
Procedure: Working stocks were initially diluted to a concentration of 40 μM in 0.1 M potassium phosphate buffer before addition to the reaction vials. Pooled mouse (CD-1, male) or human (50 donors) liver microsomes were utilized at a final concentration of 0.5 mg/mL. Duplicate wells were used for each time point (0 and 30 minutes). Reactions were carried out at 37°C in a shaker, and the final concentration of DMSO was kept constant at 0.01%. The final volume for each reaction was 100 μL, which included the addition of an NADPH-Regeneration solution (NRS) mix. The NRS mix was comprised of glucose 6-phosphate dehydrogenase (0.4 U/mL), NADP+ (1.3 mM), MgCl2 (3.3 mM), and glucose 6-phosphate (3.3 mM) in assay mixtures. Upon completion of the 30-minute time point, reactions were terminated by the addition of 1.5-volumes (150 μL) of ice-cold acetonitrile with 0.5% formic acid and internal standard. Samples were then centrifuged at 4,000 rpm for 10 minutes to remove debris and precipitated protein. Approximately 150 μL of supernatant was subsequently transferred to a new 96-well microplate for LC-MS analysis. Narrow-window mass extraction LC-MS analysis was performed for all samples using a Waters Xevo quadrupole time-of-flight (QToF) mass spectrometer and an ACQUITY UPLC system, to determine relative peak areas of parent compound.

BT124 = assay: alamarBlue BTIC viability assay, BT124; type: cell-based; conditions: Homo sapiens; BTIC line BT124, alamarBlue
BT68 = assay: alamarBlue BTIC viability assay, BT68; type: cell-based; conditions: Homo sapiens; BTIC line BT68, alamarBlue
BT53 = assay: alamarBlue BTIC viability assay, BT53; conditions: Homo sapiens, read-out: IC50 (viability)
Procedure: as §1, §2

[5] = five-day pharmacokinetics by LC-MS, serum and brain; type: in vivo, mice; conditions: SCID, mouse, five days, mean ± SD, N = 3; for concentration at 300 min: 300 minutes post-dosing; for concentration at 30 min: 30 minutes post-dosing
Procedure: Animal studies were performed following institutional ethical guidelines and protocols approved by the University of Calgary Health Sciences Animal Care Committee, accredited by the Canadian Council on Animal Care (CCAC). Non-tumor bearing mice were treated with 100 or 200 mg/kg doses of pacritinib by oral gavage for five consecutive days. Three mice per group were used. Post-dosing, blood was collected at 30 and 300 minute time points. The serum was separated by centrifugation. Liquid chromatography-mass spectrometry (LC-MS) was performed to determine the serum concentration of pacritinib. To determine brain penetration, brains were harvested and processed at the 300 minute time point following transcardiac perfusion with PBS. Brains were removed and flash frozen at -80°C. Pacritinib accumulation in the brain was analyzed using LC-MS.

In the case of C1=C/COCc2cc(ccc2OCCN2CCCC2)Nc2nccc(n2)-c2cccc(c2)COC/1 [pacritinib], the IC50 (BT12) is reported as 1660 nM, the sphere formation (BT69 [1]) is reported as “completely abolished sphere formation” and the IC50 (BT143) is reported as 1360 nM. The “survival advantage, single agent” value [2] was “failed to provide a survival advantage”, the IC50 (BT67) was 1080 nM and the IC50 (BT69 [3]) was 1260 nM. The IC50 (BT48) was 1030 nM, the “survival advantage, single agent” value ([4]; 100 mg/kg pacritinib, p < 0.4649 log-rank) was “no survival advantage” and the median survival ([4]; pacritinib 100 mg/kg, TMZ 30 mg/kg, oral, thrice weekly for five weeks, control 52 days) was 48 days. The stability rating (in vitro) was “Unstable”, the “% Remaining” value (in vitro) was under 1% and the “% Remaining” value (in vitro; listed as Pacritinib (run 1)) was 0.3%. The “% Remaining” value (in vitro; listed as Pacritinib (run 2)) was 0.6%, the IC50 (BT124) was 1330 nM and the IC50 (BT68) was 1220 nM. The IC50 (BT53) was 920 nM, the concentration at 300 min ([5]; brain, 100 mg/kg oral gavage, read-out: [Brain]) was 910 ± 61 nM and the concentration at 300 min ([5]; brain, 200 mg/kg oral gavage, read-out: [Brain]) was 840 ± 20 nM. For the same molecule, the concentration at 30 min ([5]; serum, 100 mg/kg oral gavage) was 2660 ± 720 nM, the concentration at 300 min ([5]; serum, 100 mg/kg oral gavage, read-out: [Serum]) was 510 ± 140 nM and the concentration at 30 min ([5]; serum, 200 mg/kg oral gavage) was 12600 ± 980 nM. It also gave a concentration at 300 min ([5]; serum, 200 mg/kg oral gavage, read-out: [Serum]) of 430 ± 120 nM.
